Test results taken from the supplement of paper PMC10307832.

Assays:
Experiment in all cases: relative viability (nuclei count vs DMSO), 5 days (fraction); higher = more cells survive
NCI-H1734 = test system: NCI-H1734
In short: (§1)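 Relative viability divides the nuclei count in treated wells by that in vehicle wells. Lung cancer cell lines were seeded in 1536-well plates, dosed by pin tool the next day, and fixed and stained after 5 days in one step with final 0.05% Triton X-100, 1% formaldehyde and 1 ug/ml Hoechst. Dosing was a single drug or a fixed anchor-drug dose plus five library-drug doses (not always all listed) in √10 steps, and values are medians of duplicate plates imaged at 4×.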

SW 1573 = test system: SW 1573
In short: as §1

NCI-H1650 = test system: NCI-H1650
In short: as §1

NCI-H2342 = test system: NCI-H2342
In short: as §1

PC-3 [JPC-3] = test system: PC-3 [JPC-3]
In short: as §1

CAL-12T = test system: CAL-12T
In short: as §1

NCI-H661 = test system: NCI-H661
In short: as §1

NCI-H1563 = test system: NCI-H1563
In short: as §1

COR-L23 = test system: COR-L23
In short: as §1

HCC-827 = test system: HCC-827
In short: as §1

LK-2 = test system: LK-2
In short: as §1

NCI-H520 = test system: NCI-H520
In short: as §1

NCI-H2405 = test system: NCI-H2405
In short: as §1

PC-14 = test system: PC-14
In short: as §1

NCI-H1355 = test system: NCI-H1355
In short: as §1

EKVX = test system: EKVX
In short: as §1

RERF-LC-KJ = test system: RERF-LC-KJ
In short: as §1

H3255 = test system: H3255
In short: as §1

NCI-H2228 = test system: NCI-H2228
In short: as §1

NCI-H1437 = test system: NCI-H1437
In short: as §1

HCC-15 = test system: HCC-15
In short: as §1

NCI-H322M = test system: NCI-H322M
In short: as §1

CC1(C)CCC(c2ccc(Cl)cc2)=C(CN2CCN(c3ccc(C(=O)NS(=O)(=O)c4ccc(N[C@H](CCN5CCOCC5)CSc5ccccc5)c(S(=O)(=O)C(F)(F)F)c4)cc3)CC2)C1 [Navitoclax] + Nc1nc2[nH]cc(CCc3ccc(C(=O)N[C@@H](CCC(=O)O)C(=O)O)cc3)c2c(=O)[nH]1 [Pemetrexed] (partner 0.2 µM)
relative viability (NCI-H1734; first compound 0.005 µM): 0.394 | relative viability (NCI-H1734; first compound 0.01581 µM): 0.421 | relative viability (NCI-H1734; first compound 0.1581 µM): 0.367 | relative viability (NCI-H1734; first compound 0.5 µM): 0.381 | relative viability (SW 1573; first compound 0.005 µM): 0.925 | relative viability (SW 1573; first compound 0.01581 µM): 0.773 | relative viability (SW 1573; first compound 0.05 µM): 0.787 | relative viability (SW 1573; first compound 0.1581 µM): 0.751 | relative viability (SW 1573; first compound 0.5 µM): 0.801 | relative viability (NCI-H1650; first compound 0.005 µM): 0.365 | relative viability (NCI-H1650; first compound 0.01581 µM): 0.412 | relative viability (NCI-H1650; first compound 0.05 µM): 0.298 | relative viability (NCI-H1650; first compound 0.1581 µM): 0.347 | relative viability (NCI-H1650; first compound 0.5 µM): 0.334 | relative viability (NCI-H2342; first compound 0.005 µM): 0.818 | relative viability (NCI-H2342; first compound 0.01581 µM): 0.81 | relative viability (NCI-H2342; first compound 0.05 µM): 0.805 | relative viability (NCI-H2342; first compound 0.1581 µM): 0.719 | relative viability (NCI-H2342; first compound 0.5 µM): 0.763 | relative viability (PC-3 [JPC-3]; first compound 0.005 µM): 1.12 | relative viability (PC-3 [JPC-3]; first compound 0.01581 µM): 1.26 | relative viability (PC-3 [JPC-3]; first compound 0.05 µM): 0.974 | relative viability (PC-3 [JPC-3]; first compound 0.1581 µM): 1.02 | relative viability (PC-3 [JPC-3]; first compound 0.5 µM): 0.754 | relative viability (CAL-12T; first compound 0.005 µM): 1.23 | relative viability (CAL-12T; first compound 0.01581 µM): 1.34 | relative viability (CAL-12T; first compound 0.05 µM): 1.23 | relative viability (CAL-12T; first compound 0.1581 µM): 1.23 | relative viability (CAL-12T; first compound 0.5 µM): 1.25 | relative viability (NCI-H661; first compound 0.005 µM): 0.936 | relative viability (NCI-H661; first compound 0.01581 µM): 0.958 | relative viability (NCI-H661; first compound 0.05 µM): 0.9 | relative viability (NCI-H661; first compound 0.1581 µM): 0.883 | relative viability (NCI-H661; first compound 0.5 µM): 0.876 | relative viability (NCI-H1563; first compound 0.005 µM): 0.656 | relative viability (NCI-H1563; first compound 0.01581 µM): 0.739 | relative viability (NCI-H1563; first compound 0.05 µM): 0.608 | relative viability (NCI-H1563; first compound 0.1581 µM): 0.805 | relative viability (NCI-H1563; first compound 0.5 µM): 0.861 | relative viability (COR-L23; first compound 0.005 µM): 0.208 | relative viability (COR-L23; first compound 0.01581 µM): 0.188 | relative viability (COR-L23; first compound 0.05 µM): 0.221 | relative viability (COR-L23; first compound 0.1581 µM): 0.179 | relative viability (COR-L23; first compound 0.5 µM): 0.201 | relative viability (HCC-827; first compound 0.005 µM): 0.27 | relative viability (HCC-827; first compound 0.01581 µM): 0.261 | relative viability (HCC-827; first compound 0.05 µM): 0.252 | relative viability (HCC-827; first compound 0.1581 µM): 0.23 | relative viability (HCC-827; first compound 0.5 µM): 0.258 | relative viability (LK-2; first compound 0.005 µM): 0.35 | relative viability (LK-2; first compound 0.01581 µM): 0.244 | relative viability (LK-2; first compound 0.05 µM): 0.281 | relative viability (LK-2; first compound 0.1581 µM): 0.332 | relative viability (LK-2; first compound 0.5 µM): 0.316 | relative viability (NCI-H520; first compound 0.005 µM): 0.713 | relative viability (NCI-H520; first compound 0.01581 µM): 0.743 | relative viability (NCI-H520; first compound 0.05 µM): 0.699 | relative viability (NCI-H520; first compound 0.1581 µM): 0.571 | relative viability (NCI-H520; first compound 0.5 µM): 0.681 | relative viability (NCI-H2405; first compound 0.005 µM): 1.02 | relative viability (NCI-H2405; first compound 0.01581 µM): 1.07 | relative viability (NCI-H2405; first compound 0.05 µM): 1.11 | relative viability (NCI-H2405; first compound 0.1581 µM): 0.994 | relative viability (NCI-H2405; first compound 0.5 µM): 0.896 | relative viability (PC-14; first compound 0.005 µM): 0.133 | relative viability (PC-14; first compound 0.01581 µM): 0.118 | relative viability (PC-14; first compound 0.05 µM): 0.136 | relative viability (PC-14; first compound 0.1581 µM): 0.108 | relative viability (PC-14; first compound 0.5 µM): 0.105 | relative viability (NCI-H1355; first compound 0.005 µM): 0.998 | relative viability (NCI-H1355; first compound 0.01581 µM): 1.05 | relative viability (NCI-H1355; first compound 0.05 µM): 1.11 | relative viability (NCI-H1355; first compound 0.1581 µM): 1.03 | relative viability (NCI-H1355; first compound 0.5 µM): 1.07 | relative viability (EKVX; first compound 0.005 µM): 0.433 | relative viability (EKVX; first compound 0.01581 µM): 0.389 | relative viability (EKVX; first compound 0.05 µM): 0.4 | relative viability (EKVX; first compound 0.1581 µM): 0.387 | relative viability (EKVX; first compound 0.5 µM): 0.366 | relative viability (RERF-LC-KJ; first compound 0.005 µM): 0.476 | relative viability (RERF-LC-KJ; first compound 0.01581 µM): 0.38 | relative viability (RERF-LC-KJ; first compound 0.05 µM): 0.45 | relative viability (RERF-LC-KJ; first compound 0.1581 µM): 0.484 | relative viability (RERF-LC-KJ; first compound 0.5 µM): 0.496 | relative viability (H3255; first compound 0.005 µM): 0.664 | relative viability (H3255; first compound 0.01581 µM): 0.648 | relative viability (H3255; first compound 0.05 µM): 0.571 | relative viability (H3255; first compound 0.1581 µM): 0.581 | relative viability (H3255; first compound 0.5 µM): 0.545 | relative viability (NCI-H2228; first compound 0.005 µM): 0.314 | relative viability (NCI-H2228; first compound 0.01581 µM): 0.306 | relative viability (NCI-H2228; first compound 0.1581 µM): 0.336 | relative viability (NCI-H2228; first compound 0.5 µM): 0.31 | relative viability (NCI-H1437; first compound 0.005 µM): 0.287 | relative viability (NCI-H1437; first compound 0.01581 µM): 0.336 | relative viability (NCI-H1437; first compound 0.05 µM): 0.282 | relative viability (NCI-H1437; first compound 0.1581 µM): 0.311 | relative viability (NCI-H1437; first compound 0.5 µM): 0.356 | relative viability (HCC-15; first compound 0.005 µM): 0.227 | relative viability (HCC-15; first compound 0.01581 µM): 0.26 | relative viability (HCC-15; first compound 0.05 µM): 0.218 | relative viability (HCC-15; first compound 0.1581 µM): 0.228 | relative viability (HCC-15; first compound 0.5 µM): 0.229 | relative viability (NCI-H322M; first compound 0.005 µM): 0.661 | relative viability (NCI-H322M; first compound 0.01581 µM): 0.651 | relative viability (NCI-H322M; first compound 0.05 µM): 0.65 | relative viability (NCI-H322M; first compound 0.1581 µM): 0.651 | relative viability (NCI-H322M; first compound 0.5 µM): 0.649
